Measured values: ChEMBL document CHEMBL1201862, “PubChem BioAssay data set” (2004)
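Interpolation was linear, between the two tested concentrations surrounding the appropriate level; five concentrations were tested over 48 hours in 96-well plates. GI50 marks 50% less growth.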 Calls of active or inactive are those of the source. No stated cut-off is given here; in the data, active = GI50 up to about 1.1 µM and inactive = higher.

Key:
Test in all cases: DTP human tumour cell line panel, 48 h
CAKI-1 = system: CAKI-1
TK-10 = system: TK-10
MCF7 = system: MCF7
PC-3 = system: PC-3
MOLT-4 = system: MOLT-4
OVCAR-3 = system: OVCAR-3
NCI-H23 = system: NCI-H23
OVCAR-5 = system: OVCAR-5
CCRF-CEM = system: CCRF-CEM
IGROV-1 = system: IGROV-1
RXF 393 = system: RXF 393
NCI-H460 = system: NCI-H460
HCC 2998 = system: HCC 2998
UO-31 = system: UO-31
A549 = system: A549
OVCAR-4 = system: OVCAR-4
NCI-H522 = system: NCI-H522
SN12C = system: SN12C
HOP-92 = system: HOP-92
DU-145 = system: DU-145

Measured: GI50

O=c1[nH]c2ccc(CC(=S)N3CCOCC3)cc2o1
inactive: CAKI-1 > 100 µM | TK-10 > 100 µM | MCF7 > 100 µM | PC-3 > 100 µM | MOLT-4 > 100 µM | OVCAR-3 > 100 µM | NCI-H23 > 100 µM | OVCAR-5 > 100 µM | CCRF-CEM 89.9 µM | IGROV-1 > 100 µM | RXF 393 > 100 µM | NCI-H460 > 100 µM

CCCN(CCCCC(NC(C)=O)C(=O)NCc1ccccc1)C(=O)NCCCl (stereo not drawn)
inactive: CAKI-1 > 100 µM | TK-10 > 100 µM | HCC 2998 > 100 µM | UO-31 > 100 µM | A549 > 100 µM | OVCAR-4 > 100 µM | MOLT-4 > 100 µM | NCI-H522 > 100 µM | OVCAR-3 > 100 µM | SN12C > 100 µM | HOP-92 > 100 µM | NCI-H23 > 100 µM | CCRF-CEM > 100 µM | RXF 393 > 100 µM | NCI-H460 > 100 µM

COC(=O)C(=O)C(C(=O)OC)C(=O)C(=O)Nc1ccccc1C(N)=O (stereo not drawn)
inactive: CAKI-1 > 100 µM | TK-10 > 100 µM | HCC 2998 > 100 µM | UO-31 > 100 µM | A549 > 100 µM | MCF7 > 100 µM | PC-3 > 100 µM | OVCAR-4 66.5 µM | MOLT-4 > 100 µM | NCI-H522 > 100 µM | OVCAR-3 > 100 µM | SN12C > 100 µM | HOP-92 > 100 µM | NCI-H23 > 100 µM | OVCAR-5 > 100 µM | CCRF-CEM > 100 µM | IGROV-1 > 100 µM | RXF 393 > 100 µM | NCI-H460 > 10 µM

O=[N+]([O-])CCc1cccc([N+](=O)[O-])c1
inactive: CAKI-1 > 100 µM | TK-10 > 100 µM | HCC 2998 > 100 µM | UO-31 > 100 µM | A549 > 100 µM | OVCAR-4 > 100 µM | MOLT-4 > 100 µM | NCI-H522 > 100 µM | OVCAR-3 > 100 µM | SN12C > 100 µM | HOP-92 > 100 µM | NCI-H23 > 100 µM | OVCAR-5 > 100 µM | CCRF-CEM > 100 µM | IGROV-1 > 100 µM | RXF 393 > 100 µM | NCI-H460 > 100 µM

CCOC(=O)N1CCC2(CC1)C[C@](C)(C(C)=O)C(C)O2 (stereo partly drawn)
inactive: CAKI-1 > 100 µM | TK-10 > 100 µM | HCC 2998 > 100 µM | UO-31 > 100 µM | A549 > 100 µM | MCF7 > 100 µM | PC-3 > 100 µM | OVCAR-4 > 100 µM | MOLT-4 > 100 µM | NCI-H522 > 100 µM | OVCAR-3 > 100 µM | HOP-92 > 100 µM | NCI-H23 > 100 µM | OVCAR-5 > 100 µM | IGROV-1 > 100 µM | NCI-H460 > 100 µM

COc1cc2cc3c4c(cc(OC)c(OC)c4c2cc1OC)CCN3C(=O)CCC(=O)NCCCN(C)C
inactive: CAKI-1 > 100 µM | TK-10 > 100 µM | HCC 2998 > 100 µM | UO-31 > 100 µM | A549 > 100 µM | OVCAR-4 > 100 µM | MOLT-4 58.9 µM | NCI-H522 21.8 µM | OVCAR-3 > 100 µM | SN12C > 100 µM | HOP-92 10 µM | NCI-H23 > 100 µM | CCRF-CEM 29.2 µM | IGROV-1 > 100 µM | RXF 393 > 100 µM | NCI-H460 33.1 µM

Nc1nc(NCc2ccccc2)cc(NCc2ccccc2)n1
inactive: CAKI-1 2.64 µM | TK-10 8.02 µM | HCC 2998 8.95 µM | UO-31 6.31 µM | A549 9.48 µM | MCF7 2.59 µM | PC-3 3.64 µM | OVCAR-4 9.89 µM | MOLT-4 7.18 µM | NCI-H522 4.24 µM | OVCAR-3 3.69 µM | SN12C 4.57 µM | HOP-92 5.38 µM | NCI-H23 5 µM | OVCAR-5 16.9 µM | CCRF-CEM 4.24 µM | IGROV-1 4.44 µM | RXF 393 6.31 µM | NCI-H460 4.73 µM

CN(Cc1ccccc1)c1nc(=[N+](C)C)ss1
inactive: CAKI-1 > 100 µM | TK-10 35.2 µM | HCC 2998 > 100 µM | UO-31 > 100 µM | A549 33.2 µM | OVCAR-4 > 100 µM | MOLT-4 32.1 µM | NCI-H522 41.1 µM | SN12C 65 µM | HOP-92 > 100 µM | NCI-H23 31.8 µM | OVCAR-5 > 100 µM | CCRF-CEM 3.55 µM | IGROV-1 > 100 µM | RXF 393 > 100 µM | NCI-H460 16.9 µM

CSC(SC)=C1C(=O)N(c2ccccc2)N=C1C
inactive: CAKI-1 29 µM | TK-10 22.1 µM | HCC 2998 46.6 µM | A549 30.8 µM | MCF7 17.3 µM | PC-3 28.1 µM | OVCAR-4 34.3 µM | MOLT-4 21.7 µM | NCI-H522 17.5 µM | SN12C 30.7 µM | HOP-92 2.75 µM | OVCAR-5 29.5 µM | CCRF-CEM 18.5 µM | IGROV-1 29.3 µM | RXF 393 25 µM | NCI-H460 23.9 µM

C1CSCCSCCCS[C@@H]2CCCCC2SC1 (stereo partly drawn)
inactive: CAKI-1 > 100 µM | TK-10 > 100 µM | HCC 2998 > 100 µM | UO-31 > 100 µM | A549 > 100 µM | OVCAR-4 > 100 µM | NCI-H522 25.9 µM | OVCAR-3 > 100 µM | SN12C 72.4 µM | HOP-92 65.2 µM | NCI-H23 > 100 µM | OVCAR-5 > 100 µM | CCRF-CEM 20.8 µM | IGROV-1 > 100 µM | RXF 393 > 100 µM | NCI-H460 44.1 µM

O=C(Nc1ccccn1)c1cc2c(cc1Cl)Sc1nccn1S2(=O)=O
inactive: CAKI-1 36.5 µM | TK-10 33.4 µM | HCC 2998 16.1 µM | UO-31 27 µM | A549 34.8 µM | MCF7 41.8 µM | PC-3 44.8 µM | OVCAR-4 33 µM | MOLT-4 31.3 µM | NCI-H522 39.1 µM | OVCAR-3 26.7 µM | SN12C 36.6 µM | HOP-92 51.9 µM | NCI-H23 27.4 µM | OVCAR-5 > 100 µM | CCRF-CEM 22.5 µM | IGROV-1 23.8 µM | RXF 393 25.5 µM | NCI-H460 30.1 µM

C=C(C)[C@H]1C2=CC(C(=O)OC)=C(C[C@H](C(=C)C)[C@@H](O)[C@@H](O)C3=C[C@H]1OC3=O)O2
inactive: CAKI-1 > 100 µM | TK-10 > 100 µM | UO-31 18 µM | A549 > 100 µM | MCF7 > 100 µM | OVCAR-4 > 100 µM | MOLT-4 97.5 µM | NCI-H522 > 100 µM | OVCAR-3 > 100 µM | SN12C > 100 µM | HOP-92 65.5 µM | DU-145 > 100 µM | NCI-H23 > 100 µM | OVCAR-5 > 100 µM | CCRF-CEM 87.9 µM | IGROV-1 80.2 µM | RXF 393 > 100 µM
